Laboratory results published in US20080058213A1, “Benzoxazole Compounds” (priority 2004, published 2008).

Experiments:
Assay type in all cases: in vivo
soybean [1] = test: Foliage treatment test for upland field (Test Example 3): phytotoxicity to soybean; conditions: foliage treatment at 1.0-2.0 leaf stage of southern crabgrass, examined after 3 weeks
Experimental: (§1) Evaluation of phytotoxicity is shown in the following six grades, as compared with the condition of untreated control: • 0: normal growth • 1: little damaged • 2: low damaged • 3: medium damaged • 4: serious damaged • 5: complete killed.
(§2) Compost mixed soil was filled in 1/3,000 are pots, seeded with southern crabgrass, common lambsquaters, slender amaranth, common purslane, velvetleaf, wheat, corn and soybean. The seeds were covered up with the soil and cultured in a glasshouse kept at 25° C. on the average.
(§3) After placing the test pots in a grasshouse kept at 25° C. on the average for 3 weeks, the herbicidal effect was examined.

common purslane = test: Foliage treatment test for upland field (Test Example 3): common purslane; conditions: foliage treatment at 1.0-2.0 leaf stage of southern crabgrass, examined after 3 weeks
From the text: (§4) Evaluation of the herbicidal effect is shown in the following six grades, by comparing the condition of untreated control and growth inhibition (%): • 0: 0%-less than 20% • 1: 20%-less than 40% • 2: 40%-less than 60% • 3: 60%-less than 80% • 4: 80%-less than 100% • 5: 100%.
as §2
(§5) Wettable powders containing the object compounds (1) as identified in Table 1, which were formulated following Preparation Example 2, were diluted with water to the prescribed dose of the active ingredient, and uniformly sprayed onto the weeds at 1.0-2.0 leaf stage of the southern crabgrass at an application water of 15 liters per are.
as §3
(§6) Evaluation of the herbicidal effect was conducted in the similar manner to Test Example 1.

velvetleaf = test: Foliage treatment test for upland field (Test Example 3): velvetleaf; conditions: foliage treatment at 1.0-2.0 leaf stage of southern crabgrass, examined after 3 weeks
From the text: as §4, §2, §5, §3, §6

wheat [2] = test: Soil treatment test for upland field (Test Example 2): phytotoxicity to wheat; conditions: soil treatment before germination, examined after 3 weeks
From the text: as §1
(§7) Upland field soil was filled in 1/3,000 are pots, seeded with southern crabgrass (Digitaria ciliaris), common lambsquaters (Chenopodium album), slender amaranth (Amaranthus viridis), common purslane (Portulaca oleracea), velvetleaf (Abutilon theophrasti), wheat, corn and soybean. The seeds were covered up with the soil.
(§8) After placing the test pots in a glasshouse which was kept at an average temperature of 25° C. for 3 weeks, the herbicidal effect was examined.

[3] = system: common purslane (Portulaca oleracea); test: Soil treatment test for upland field (Test Example 2): common purslane; conditions: soil treatment before germination, examined after 3 weeks
From the text: as §4, §7
(§9) Wettable powders containing the object compounds (1) as identified in Table 1, which were formulated following Preparation Example 2, were diluted with adequate amount of water to secure the prescribed dose of the active ingredient, and uniformly sprayed onto the surface soil layer after the seeding and before germination of the weeds, at an application water of 15 liters per are.
as §8
(§10) Evaluations of the herbicidal effect and phytotoxicity were made in the manner similar to those in the above Test Example 1.

slender amaranth = test: Foliage treatment test for upland field (Test Example 3): slender amaranth; conditions: foliage treatment at 1.0-2.0 leaf stage of southern crabgrass, examined after 3 weeks
From the text: as §4, §2, §5, §3, §6

corn [4] = test: Soil treatment test for upland field (Test Example 2): phytotoxicity to corn; conditions: soil treatment before germination, examined after 3 weeks
From the text: as §1, §7, §8

corn [5] = test: Foliage treatment test for upland field (Test Example 3): phytotoxicity to corn; conditions: foliage treatment at 1.0-2.0 leaf stage of southern crabgrass, examined after 3 weeks
Experimental: as §1, §2, §3

[6] = system: Japanese bulrush (Scirpus juncoides); test: Weed control test for paddy field (Test Example 1): Japanese bulrush; conditions: paddy pots, treated at 1.0 leaf stage of barnyard grass, examined after 3 weeks
From the text: (§11) Paddy field soil was filled in 1/10,000 are pots, kneaded with adequate amounts of water and chemical fertilizer, seeded with barnyard grass (Echinochloa crusgalli), Monochoria (Monochoria vaginalis), Japanese bulrush (Scirpus juncoides) and flat sedge (Cyperus serotinus), and further transplanted with 2.0 leaf stage of rice plant. The pots were maintained under the water-filled condition to a depth of 3 cm.
(§12) Wettable powders containing the compounds (1) as identified in Table 1, which were formulated following Production Example 2, were diluted with adequate amount of water and applied to the pots dropwise with pippet at a prescribed dose of the active ingredients per are, at 1.0 leaf stage of the barnyard grass.
(§13) After placing the pots in a glasshouse which was controlled at an average temperature of 25° C. for 3 weeks, herbicidal effect was examined.
as §4

wheat [7] = test: Foliage treatment test for upland field (Test Example 3): phytotoxicity to wheat; conditions: foliage treatment at 1.0-2.0 leaf stage of southern crabgrass, examined after 3 weeks
Experimental: as §1, §2, §3

soybean [8] = test: Soil treatment test for upland field (Test Example 2): phytotoxicity to soybean; conditions: soil treatment before germination, examined after 3 weeks
From the text: as §1, §7, §8

[9] = system: southern crabgrass (Digitaria ciliaris); test: Soil treatment test for upland field (Test Example 2): southern crabgrass; conditions: soil treatment before germination, examined after 3 weeks
From the text: as §4, §7, §9, §8, §10

southern crabgrass = test: Foliage treatment test for upland field (Test Example 3): southern crabgrass; conditions: foliage treatment at 1.0-2.0 leaf stage of southern crabgrass, examined after 3 weeks
From the text: as §4, §2, §5, §3, §6

common lambsquaters = test: Foliage treatment test for upland field (Test Example 3): common lambsquaters; conditions: foliage treatment at 1.0-2.0 leaf stage of southern crabgrass, examined after 3 weeks
From the text: as §4, §2, §5, §3, §6

[10] = system: flat sedge (Cyperus serotinus); test: Weed control test for paddy field (Test Example 1): flat sedge; conditions: paddy pots, treated at 1.0 leaf stage of barnyard grass, examined after 3 weeks
From the text: as §11, §12, §13, §4

[11] = system: velvetleaf (Abutilon theophrasti); test: Soil treatment test for upland field (Test Example 2): velvetleaf; conditions: soil treatment before germination, examined after 3 weeks
From the text: as §4, §7, §9, §8, §10

rice plant = test: Weed control test for paddy field (Test Example 1): phytotoxicity to rice plant; conditions: paddy pots, treated at 1.0 leaf stage of barnyard grass, examined after 3 weeks
From the text: as §11, §12, §13, §1

[12] = system: Monochoria (Monochoria vaginalis); test: Weed control test for paddy field (Test Example 1): Monochoria; conditions: paddy pots, treated at 1.0 leaf stage of barnyard grass, examined after 3 weeks
From the text: as §11, §12, §13, §4

[13] = system: slender amaranth (Amaranthus viridis); test: Soil treatment test for upland field (Test Example 2): slender amaranth; conditions: soil treatment before germination, examined after 3 weeks
From the text: as §4, §7, §9, §8, §10

[14] = system: common lambsquaters (Chenopodium album); test: Soil treatment test for upland field (Test Example 2): common lambsquaters; conditions: soil treatment before germination, examined after 3 weeks
From the text: as §4, §7, §9, §8, §10

[15] = system: barnyard grass (Echinochloa crusgalli); test: Weed control test for paddy field (Test Example 1): barnyard grass; conditions: paddy pots, treated at 1.0 leaf stage of barnyard grass, examined after 3 weeks
From the text: as §11, §12, §13, §4

For `COCC(=Cc1ccc(Cl)c(C(F)(F)F)c1)c1nc2cc(Cl)ccc2o1` [Compound 9], the Phytotoxicity soybean (soybean [1]; dose 2.5 g ai/a) was 0, the Phytotoxicity soybean (soybean [1]; dose 5 g ai/a) was 1 and the “Herbicidal Effect common purslane” value (common purslane; dose 2.5 g ai/a) was 5 (100%). For the same compound, the “Herbicidal Effect common purslane” value (common purslane; dose 5 g ai/a) was 5 (100%), the “Herbicidal Effect velvetleaf” value (velvetleaf; dose 2.5 g ai/a) was 4 (80%-less than 100%) and the “Herbicidal Effect velvetleaf” value (velvetleaf; dose 5 g ai/a) was 5 (100%). The Phytotoxicity wheat (wheat [2]; dose 2.5 g ai/a) was 0, the Phytotoxicity wheat (wheat [2]; dose 5 g ai/a) was 1 and the “Herbicidal Effect common purslane” value ([3]; dose 2.5 g ai/a) was 5 (100%). For the same compound, the “Herbicidal Effect common purslane” value ([3]; dose 5 g ai/a) was 5 (100%), the “Herbicidal Effect slender amaranth” value (slender amaranth; dose 2.5 g ai/a) was 5 (100%) and the “Herbicidal Effect slender amaranth” value (slender amaranth; dose 5 g ai/a) was 5 (100%). For the same compound, the Phytotoxicity corn (corn [4]; dose 2.5 g ai/a) was 1, the Phytotoxicity corn (corn [4]; dose 5 g ai/a) was 1 and the Phytotoxicity corn (corn [5]; dose 2.5 g ai/a) was 1. The Phytotoxicity corn (corn [5]; dose 5 g ai/a) was 1, the “Herbicidal Effect Japanese bulrush” value ([6]; dose 2.5 g ai/a) was 3 (60%-less than 80%) and the “Herbicidal Effect Japanese bulrush” value ([6]; dose 5 g ai/a) was 4 (80%-less than 100%). The Phytotoxicity wheat (wheat [7]; dose 2.5 g ai/a) was 1, the Phytotoxicity wheat (wheat [7]; dose 5 g ai/a) was 1 and the Phytotoxicity soybean (soybean [8]; dose 2.5 g ai/a) was 0. For the same compound, the Phytotoxicity soybean (soybean [8]; dose 5 g ai/a) was 0, the “Herbicidal Effect southern crabgrass” value ([9]; dose 2.5 g ai/a) was 5 (100%) and the “Herbicidal Effect southern crabgrass” value ([9]; dose 5 g ai/a) was 5 (100%). The “Herbicidal Effect southern crabgrass” value (southern crabgrass; dose 2.5 g ai/a) was 5 (100%), the “Herbicidal Effect southern crabgrass” value (southern crabgrass; dose 5 g ai/a) was 5 (100%) and the “Herbicidal Effect Common lambsquatters” value (common lambsquaters; dose 2.5 g ai/a) was 5 (100%). The “Herbicidal Effect Common lambsquatters” value (common lambsquaters; dose 5 g ai/a) was 5 (100%), the “Herbicidal Effect Flat sedge” value ([10]; dose 2.5 g ai/a) was 2 (40%-less than 60%) and the “Herbicidal Effect Flat sedge” value ([10]; dose 5 g ai/a) was 3 (60%-less than 80%). For the same compound, the “Herbicidal Effect velvetleaf” value ([11]; dose 2.5 g ai/a) was 4 (80%-less than 100%), the “Herbicidal Effect velvetleaf” value ([11]; dose 5 g ai/a) was 5 (100%) and the “Phytotoxicity Rice plant” value (rice plant; dose 2.5 g ai/a) was 0. The “Phytotoxicity Rice plant” value (rice plant; dose 5 g ai/a) was 0, the “Herbicidal Effect Monochoria vaginalis” value ([12]; dose 2.5 g ai/a) was 5 (100%) and the “Herbicidal Effect Monochoria vaginalis” value ([12]; dose 5 g ai/a) was 5 (100%). For the same compound, the “Herbicidal Effect slender amaranth” value ([13]; dose 2.5 g ai/a) was 5 (100%), the “Herbicidal Effect slender amaranth” value ([13]; dose 5 g ai/a) was 5 (100%) and the “Herbicidal Effect common lambsquaters” value ([14]; dose 2.5 g ai/a) was 5 (100%). The “Herbicidal Effect common lambsquaters” value ([14]; dose 5 g ai/a) was 5 (100%), the “Herbicidal Effect Barnyard grass” value ([15]; dose 2.5 g ai/a) was 4 (80%-less than 100%) and the “Herbicidal Effect Barnyard grass” value ([15]; dose 5 g ai/a) was 5 (100%).
